The text below walks through data of patent US11440923B2, “Substituted macrocyclic indole derivatives” (Bayer Aktiengesellschaft, priority 2017, dated 2022).

Each structure is given as a SMILES string. Where a name gives a salt, the structure may show the parent alone. Read-outs that look alike come from different tables or passages of the source.

What all share (format): cell-based
Data set [1] concerns SUDHL10 cells. The data set can be described thus: Induction of caspase-3/7 activity in SUDHL10 cells (Assay 4). In a few lines: (§1)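 Caspase-3/7 activity measured in DLBCL lines after 3 h compound exposure at 37 °C, following overnight plating; Caspase-Glo 3/7 luminescence read after 1 h at 37 °C. Medium-only background subtracted, values normalized to mean of DMSO-treated cells.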

The test system of another data set is SNU-389 cells. The data set can be described thus: Antiproliferation assay SNU-389 (Assay 7). The settings on record: 72 h, CellTiter-Glo; read-out: Antiproli SNU-389 IC50. As to the method: (§2) Assessment of the Anti-Proliferative Effect of Compounds in Different Cell Lines
(§3) The impact of compounds on the proliferation of different cell lines was assessed using the CellTiter-Glo® Luminescent Cell Viability reagent from Promega (G7573).
(§4) In parallel, cells were plated in a reference (day 0) plate for time zero determination. Cells were incubated in a humidified incubator at 37° C. overnight.
(§5) Rim wells were excluded. The cells were incubated for 72 h hours in a humidified incubator at 37° C. The day 0 plate was measured by adding 30 μL/well of CTG solution (CellTiter-Glo® Luminescent Cell Viability reagent, Promega G7573) to time zero wells in the reference plate followed by a 10 minutes incubation and luminescence reading at 0.1 ms. using the PHERAstar FS microplate reader (BMG Labtech).
(§6) After 72 h incubation, the treated plates were measured in the same way as the day 0 plate mentioned above. The Bella DRC Master Sheet was used to calculate IC50s, with CI=day 0 values and C0=DMSO control values.
In general terms: ATP-based viability assays read luminescence as a measure of living cells.

In data set [2] the test system is SUDHL5 cells. Description: Induction of cytotoxicity in SUDHL5 cells (Assay 6). The conditions noted are these: 5 h, CellTiter-Glo; read-out: Cytotox SUDHL5 IC50 (median). In outline:
(§7)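 SUDHL5 and SUDHL10 cells plated and held overnight at 37° C, then incubated 5 h at 37° C with compound. Viability measured by CellTiter-Glo luminescence after 15 min shaking at room temperature. Cell-free medium wells served as control.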

For a further data set, the system named is PA-1 cells. Description: Antiproliferation assay PA-1 (Assay 7). The settings on record: Homo sapiens, PA-1; 72 h, CellTiter-Glo; read-out: Antiproli PA-1 IC50 median. As to the method:
as §2, §3, §4, §5, §6

For a further data set, the system named is A-431 cells. Description: Antiproliferation assay A-431 (Assay 7). The conditions noted are these: Homo sapiens, A-431; 72 h, CellTiter-Glo; read-out: Antiproli A-431 IC50 median. As to the method: as §2, §3, §4, §5, §6
The next data set concerns SK-MEL-2 cells. Description: Antiproliferation assay SK-MEL-2 (Assay 7). The conditions noted are these: Homo sapiens, SK-MEL-2; 72 h, CellTiter-Glo; read-out: Antiproli SK-MEL-2 IC50 median. As to the method: as §2, §3, §4, §5, §6
Data set [3] deals with SUDHL5 cells. Description: Induction of caspase-3/7 activity in SUDHL5 cells (Assay 4). In outline:
as §1

In a further data set the test system is SNU-16 cells. The data set can be described thus: Antiproliferation assay SNU-16 (Assay 7). The settings on record: Homo sapiens, SNU-16; 72 h, CellTiter-Glo; read-out: Antiproli SNU-16 IC50 median. As to the method:
as §2, §3, §4, §5, §6

For the next data set, the system named is HMC-1-8 cells. Description: Antiproliferation assay HMC-1-8 (Assay 7). The settings on record: 72 h, CellTiter-Glo; read-out: Antiproli HMC-1-8 IC50 median. In outline:
(§8)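 Anti-proliferative effect was measured by CellTiter-Glo ATP luminescence after 72 h compound exposure at 37° C, following overnight plating. IC50s were derived using a parallel time-zero plate and DMSO-treated controls as reference points.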

A further data set has as its system AMO-1 cells. Description: Antiproliferation assay AMO-1 (Assay 7). The conditions noted are these: 72 h, CellTiter-Glo; read-out: Antiproli AMO-1 IC50 median. In outline:
as §8

In a further data set the test system is DMS-114 cells. The data set can be described thus: Antiproliferation assay DMS-114 (Assay 7). The settings on record: Homo sapiens; DMS-114 cells, 72 h, CellTiter-Glo; read-out: Antiproli DM-S114 IC50 median. As to the method:
as §2, §3, §4, §5, §6

Data set [4] deals with SUDHL5 cells. Description: Antiproliferation assay SUDHL5 (Assay 7). In outline: as §8
Data set [5] has as its target MCL1 protein / biotinylated BIM BH3 peptide in RKO cells (Homo sapiens (Human), UniProt Q07820). Description: PIxEL: protein-protein interaction in permeabilized cells by ELISA (Assay 5). The settings on record: PIxEL IC50 (median). As to the method:
PIxEL: Protein-Protein Interaction in Permeabilized Cells by ELISA
Most MCL1 protein molecules are localized at the mitochondria outer membrane and sequester pro-apoptotic proteins through binding of their BCL2 homology domain 3 (BH3 domain). MEB buffer (150 mM mannitol, 10 mM HEPES pH 7.5, 50 mM KCl, 20 μM EDTA, 20 μM EGTA, 5 mM potassium succinate, 0.1% protease-free BSA (SIGMA) with low dose digitonin (0.002%) permeabilizes plasma membrane while leaves live mitochondria, where MCL1 maintains its native localization and conformation. Unlike biophysical assays (e.g. TR-FRET) that use truncated recombinant MCL1 protein, this assay uses full length endogenous MCL1 protein at mitochondria outer membrane. It measures the interaction between MCL1 protein and biotinylated BIM BH3 peptide. Compounds can compete with BIM BH3 peptide to bind to MCL1 protein.
On day 1, RKO colon cancer cell line cells were plated at 0.8 million cells/ml, 100 μl/well in 96-well flat bottom TC plates (Corning). MCL1 antibody (Santa Cruz sc-12756) were diluted at 200 fold (final concentration 1 μg/ml) in carbonate buffer (Thermo Fisher Scientific, pH 9.6), and 50 μl of diluted antibody was added to each well of high bind ELISA plates ([…]). Each plate was tapped to make sure liquid covering entire bottom of wells and incubate at 37° C. overnight.
On the second day, MCL1 antibody was washed from ELISA plate. 250 μl Odyssey® Blocking Buffer (PBS) (Li-Cor) was added to each well, incubated at room temperature for at least 1 hour, then washed once with 250 μl 1×PBST. Plates with RKO cells were gently washed once with 100 μl/well PBS, once with 100 μl/well MEB buffer without digitonin, then 100 μl of MEB buffer with 0.002% digitonin was gently added to each well. Compounds were added with HP Tecan compound dispenser in 3-fold dilution series, highest dose 30 μM, 10-dose per compound in quadruplicates. Biotin-BIM peptide (synthesized by 21st Century) was added with HP Tecan compound dispenser at 0.2 μM immediately after the addition of compounds. Plates were rocked for 1 hour at room temperature. Then MEB buffer was aspirated and 50 μl of CHAPS buffer (50 mM Tris-Cl, pH 7.4, 150 mM NaCl, 1% CHAPS, 1 mM EDTA, 1 mM EGTA, cOmplete protease inhibitors (Roche), PhosSTOP (Roche)) was added to each well. Plates were rocked for 1 hour at 4° C., then 45 μl cell lysate from each well were transferred to ELISA plates coated with MCL1 antibody. Plates were incubated overnight in the cold room with rocking.
On the third day, ELISA plates were washed once with 250 μl 1×PBST. Streptavidin-poly-HRP (Thermo Fisher Scientific) was diluted to 20 ng/ml in Odyssey blocking buffer plus 0.05% Triton-100, and 100 μl was added to each well of the ELISA plate. Plates were incubated at room temperature for 1 hour with rocking, then washed with 100 μl 1×PBST for 3 times. Each SuperSignal ELISA Femto Maximum Sensitivity substrate was added to a 50-ml tube and mixed, then 100 μl of mixed substrate was added to each well. Plates were shaken for 1 minute then luminescence was measured by Envision plate reader […]. Signal of each well were normalized by no-compound control and no-cell control. IC50 was calculated using Graphic Pad PRISM software.

Data set [6] concerns SUDHL10 cells. The data set can be described thus: Induction of cytotoxicity in SUDHL10 cells (Assay 6). The conditions noted are these: 5 h, CellTiter-Glo; read-out: Cytotox SUDHL10 IC50 (median). In a few lines: as §7
The mark [7] stands for this setting: caspase-3/7 induction, 3 h; read-out: Caspase SUDHL10 EC50 (median).
Setting [8] is: caspase-3/7 induction, 3 h; read-out: Caspase SUDHL5 EC50 (median).
The mark [9] stands for this setting: 72 h, CellTiter-Glo; read-out: Antiproli SUDHL5 IC50 (median).

In general, EC50 refers to the midpoint of the concentration-response curve. What is called IC50 is the concentration that gives 50% inhibition.

MCL1 protein / biotinylated BIM BH3 peptide in RKO cells, sequence (Q07820 whole entry): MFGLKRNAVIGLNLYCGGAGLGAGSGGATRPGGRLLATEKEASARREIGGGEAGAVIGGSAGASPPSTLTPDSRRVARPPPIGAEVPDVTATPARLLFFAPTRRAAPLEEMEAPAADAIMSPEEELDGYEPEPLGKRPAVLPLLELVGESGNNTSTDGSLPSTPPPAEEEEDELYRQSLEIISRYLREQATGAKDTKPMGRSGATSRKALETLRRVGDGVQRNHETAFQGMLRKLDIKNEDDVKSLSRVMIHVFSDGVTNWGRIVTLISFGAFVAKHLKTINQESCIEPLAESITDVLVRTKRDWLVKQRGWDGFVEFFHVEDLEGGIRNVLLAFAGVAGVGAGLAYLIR

As to `CCc1c2c(nn1C)C(CCN1CCOCC1)N(C)CCCCn1c(C(=O)O)c(CCCOc3cccc4cc(F)ccc34)c3ccc(Cl)c-2c31` (single isomer, unassigned) [Example 94, 4-chloro-3-ethyl-7-{3-[(6-fluoronaphthalen-1-yl)oxy]propyl}-2,14-dimethyl-15-[2-(morpholin-4-yl)ethyl]-10,11,12,13,14,15-hexahydro-2H-pyrazolo[3′,4′:8,9][1,6]diazacycloundecino[10,11,1-hi]indole-8-carboxylic Acid], the half-maximal effective concentration (EC50) in the data set on SUDHL10 cells [1] (setting [7]) worked out at 23 nM; in the data set on SUDHL5 cells [3] (setting [8]), 36 nM. Also, the concentration for half-maximal inhibition (IC50) in the data set with SNU-389 cells is 305 nM; with SUDHL5 cells [2], 40 nM; in the data set with PA-1 cells it was 218 nM; in the data set on A-431 cells it was 361 nM; in the data set with SK-MEL-2 cells it was 299 nM; in the data set on SNU-16 cells, 221 nM. The concentration for half-maximal inhibition (IC50) in the data set with HMC-1-8 cells was 777 nM; with AMO-1 cells, 41.3 nM; in the data set with DMS-114 cells it was 133 nM; with SUDHL5 cells [4] (setting [9]), 40 nM.
On to `CCc1c2c(nn1C)C(CCN1CCOCC1)OCC(F)(F)CCn1c(C(=O)O)c(CCCOc3cccc4cc(F)ccc34)c3ccc(Cl)c-2c31` (single isomer, unassigned; (+)) [Example 90, (+)-4-chloro-3-ethyl-12,12-difluoro-7-{3-[(6-fluoronaphthalen-1-yl)oxy]propyl}-2-methyl-15-[2-(morpholin-4-yl)ethyl]-2,10,11,12,13,15-hexahydropyrazolo[4′,3′:9,10][1,6]oxazacycloundecino[8,7,6-hi]indole-8-carboxylic Acid], for which the EC50 stood at 13 nM in the data set on SUDHL10 cells [1] (setting [7]) and 27 nM in the data set with SUDHL5 cells [3] (setting [8]). In addition, the IC50 in the data set with SNU-389 cells was 141 nM; in the data set on SUDHL5 cells [2] it was 30 nM; in the data set on PA-1 cells, 422 nM; with A-431 cells, 209 nM; in the data set on SK-MEL-2 cells, 252 nM; in the data set on SNU-16 cells it was 1110 nM. Moreover, the half-inhibitory concentration (IC50) with HMC-1-8 cells came to 416 nM; in the data set with AMO-1 cells, 24.2 nM; in the data set with DMS-114 cells, 163 nM; with SUDHL5 cells [4] (setting [9]) it was 30 nM.
On to `Cc1c2c(nn1C)C(CCN1CCOCC1)OCCCCn1c(C(=O)O)c(CCCOc3cccc4ccccc34)c3ccc(F)c-2c31` (single isomer, unassigned; enantiomer 1) [Example 8, 4-fluoro-2,3-dimethyl-15-[2-(morpholin-4-yl)ethyl]-7-{3-[(naphthalen-1-yl)oxy]propyl}-2,10,11,12,13,15-hexahydropyrazolo[4′,3′:9,10][1,6]oxazacycloundecino[8,7,6-hi]indole-8-carboxylic Acid—N-ethylethanamine Salt (Enantiomer 1)], for which the EC50 in the data set on SUDHL10 cells [1] (read-out: Caspase SUDHL10 EC50 (median); caspase-3/7 induction, 3 h) came out at 150 nM; in the data set on SUDHL5 cells [3] (read-out: Caspase SUDHL5 EC50 (median); caspase-3/7 induction, 3 h), 64 nM. The IC50 was 617 nM in [5]; 76 nM in the data set on SUDHL5 cells [2]; 30 nM with SUDHL5 cells [4] (read-out: Antiproli SUDHL5 IC50 (median); 72 h, CellTiter-Glo); 140 nM in the data set on SUDHL10 cells [6].
